# In ChEMBL document CHEMBL1157412, “Cytotoxic alkaloids and antibiotic nordammarane triterpenoids from the marine-derived fungus Aspergillus sydowi” (J Nat Prod, 2008):
# Legend:
# A549 = experiment: Cytotoxicity against human A549 cells after 72 hrs by MTT assay; format: functional, cell-based; conditions: A549, 72 h
# Micrococcus luteus = experiment: Antimicrobial activity against Micrococcus lysodeikticus after 24 hrs by disk diffusion method; format: functional
# Escherichia coli = experiment: Antimicrobial activity against Escherichia coli after 24 hrs by disk diffusion method; format: functional
# Bacillus subtilis = experiment: Antimicrobial activity against Bacillus subtilis after 24 hrs by disk diffusion method; format: functional
# HL-60 = experiment: Cytotoxicity against human HL60 cells after 72 hrs by MTT assay; format: functional, cell-based; conditions: HL-60, 72 h
SMILES,MIC (Micrococcus luteus) [µM],MIC (Escherichia coli) [µM],MIC (Bacillus subtilis) [µM],IC50 (A549) [µM],IC50 (HL-60) [µM]
CC(C)=CCc1cccc2c(C[C@H]3C(=O)N[C@@H](C)C(=O)N3O)c[nH]c12,,,,7.31,
COc1ccc2c(C[C@@H]3NC(=O)[C@@H]4CCCN4C3=O)c(C(=O)C=C(C)C)[nH]c2c1 [18-OXOTRYPROSTATIN A],,,,1.28,
COc1ccc2c(c1)NC(=O)[C@@]21C=C2C(=O)N3CCC[C@H]3C(=O)N2[C@H]1C=C(C)C [SPIROTRYPROSTATIN B],,,,8.29,9.71

# The next lines start with results.
MIC (Micrococcus luteus) [µM],MIC (Escherichia coli) [µM],MIC (Bacillus subtilis) [µM],SMILES,IC50 (A549) [µM],IC50 (HL-60) [µM]
10.7,10.7,5.33,CC(=O)O[C@H]1C[C@@]2(C)[C@@H](CC[C@H]3[C@@]4(C)C=CC(=O)[C@@H](C)[C@@H]4[C@H](OC(C)=O)C(=O)[C@@]32C)/C1=C(\CCCC(C)(C)O)C(=O)O,,
7.49,3.74,15,C/C=C\[C@H](O)[C@H](O)C1=C(C)C(=O)[C@]2(O1)C(=O)N[C@@](OC)(C(=O)c1ccccc1)[C@@H]2O [14-NORPSEUROTIN A],,
11,87.9,22,CC(=O)O[C@H]1C[C@@]2(C)[C@@H](CC[C@H]3[C@@]4(C)C=CC(=O)[C@@H](C)[C@@H]4[C@H](OC(C)=O)C(=O)[C@@]32C)/C1=C(\CCC=C(C)C)C(=O)O [HELVOLIC ACID],,
7.42,14.5,14.5,CC/C=C\[C@H](O)[C@H](O)C1=C(C)C(=O)[C@]2(O1)C(=O)N[C@@](OC)(C(=O)c1ccccc1)[C@@H]2O [PSEUROTIN A],,
